The results in this text go back to publication PMC8153121, “N-Alkylation of Anthracycline Antibiotics by Natural Sesquiterpene Lactones as a Way to Obtain Antitumor Agents with Reduced Side Effects” (Biomedicines, 2021).

The subject of one experiment is MCF7 (breast cancer). The experiment is described as follows: MTT cell viability test, MCF7. Particulars: MTT, 72 h, read-out: IC50, MCF7. Type of experiment: cell-based, Human. The method, then: (§1) Human cell cultures of tumor origin (A549 (lung carcinoma), HCT116 (colon adenocarcinoma), MCF7 (breast cancer), RD (embryonic rhabdomyosarcoma)), and the line of non-transformed cells HEK293 (embryonic kidney) provided by the Laboratory of Tumor Cell Genetics at the N.N. Blokhin Russian Cancer Research Institute, as well as by the Institute of Cytology of the Russian Academy of Sciences, were grown in DMEM (Gibco, Scotland, UK) and MEM (Gibco, Scotland, UK) containing fetal calf serum (10% by volume) (ThermoFisher Scientific, Paisley, UK), L-glutamine (2 mM) (Gibco, Scotland, UK), and penicillin-streptomycin (1% by volume) (PanEco, Moscow, Russia).
(§2) Cellular viability was determined by the MTT test. […] After 24 h of incubation, various concentrations of the test compounds dissolved in DMSO (≤1%) were added to the cell cultures, the solvent was added to the control wells in an equal volume, and then the cells were cultured under the same conditions for 72 h. After the incubation time, MTT (3-(4,5-dimethylthiazol-2-yl)-2,5-diphenyltetrazolium bromide, 5 mg/mL) was added to each well, and the plates were further incubated for 2 h (until a characteristic color appeared). Then, the formazan granules were dissolved in DMSO.
(§3) Using a plate analyzer (Cytation3, BioTech Instruments Inc., USA), the optical density was determined at λ = 530 nm.

Another experiment relates to A549 (lung carcinoma). Put plainly: MTT cell viability test, A549. The conditions noted are these: MTT, 72 h, read-out: IC50, A549. It is filed as cell-based, Human. The method, then: as §1, §2, §3
In experiment [1] the test system is HEK293 (embryonic kidney). The experiment is described as follows: MTT cell viability test, non-transformed HEK293. Type of experiment: cell-based, Human. The conditions noted are these: MTT, 72 h, non-transformed cells, read-out: IC50, HEK293. The method, then:
as §1, §2, §3

Experiment [2] deals with RD (embryonic rhabdomyosarcoma). The experiment is described as follows: MTT cell viability test, RD. It is filed as cell-based, Human. The conditions noted are these: MTT, 72 h, read-out: IC50, RD. The method, then:
as §1, §2, §3

Experiment [3] has as its target T1, cytochrome-c-oxidase complex of the mitochondrial respiratory chain (IV) (Rattus norvegicus, UniProt P00406+P05503+P05505).
T1 construct: Rat heart mitochondria were isolated by differential centrifugation; from tissue; host or cells: rat heart mitochondria
The experiment is described as follows: Respiratory chain complex IV, OCR of isolated rat heart mitochondria (Seahorse). Type of experiment: biochemical. The conditions noted are these: isolated rat heart mitochondria 10 μg/well, compounds at 30 μM. The method, then:
(§4) Rat heart mitochondria were isolated by differential centrifugation using ice-cold buffer containing KCl (120 mM) and HEPES (20 mM), pH = 7.4, and a trypsin inhibitor. The mitochondrial yield ranged from 5 to 10 mg/mL of protein in the heart sediment. Mitochondria were stored in plastic containers at 4 °C.
(§5) The effect of the compounds on the functioning of the electron transport chain complexes was carried out using an Agilent Seahorse XF96e Analyzer (Seahorse Bioscience, Billerica, MA, USA) according to their ability to change the rate of oxygen uptake by isolated rat heart mitochondria (10 μg/well). The following modulators were used: activators of complex I of the electron transport chain, NADH dehydrogenase,—glutamate/malate; rotenone (2 μM) (Sigma Aldrich, Saint Louis, USA)—a tissue respiration blocker that stops the transfer of electrons from the reduced form of NADH to cytochrome b, was used as complex I inhibitor; potassium succinate ([…]) (Dia-M, Moscow, Russia), which is a substrate of complex II of the electron transport chain, made it possible to assess mitochondrial respiration mediated by succinate dehydrogenase; complex III (ubiquinol-cytochrome c-oxidoreductase) inhibitor—a blocker of cellular respiration antimycin A (Sigma Aldrich, Saint Louis, USA), as well as ascorbate/TMPD (0.5 μM) (Sigma Aldrich, Saint Louis, USA), allowed us to evaluate the cytochrome-c-oxidase mediated respiration of organelles.

Experiment [4] has as its system HCT116 (colon adenocarcinoma). Put plainly: MTT cell viability test, HCT116. Type of experiment: cell-based, Human. The conditions noted are these: MTT, 72 h, read-out: IC50, HCT116. The method, then: as §1, §2, §3
The test system of the next experiment is rat heart mitochondria. Put plainly: Mitochondrial swelling. It is filed as biochemical. The conditions noted are these: rat heart mitochondria 0.5 mg/mL, compounds at 100 μM, Ca2+ 25 μM. The method, then: as §4
Mitochondrial swelling was recorded by the light transmission of the rat heart mitochondrial suspension at λ = 540 nm using a Victor 3 plate analyzer (Perkin Elmer, Germany). The swelling rate was estimated as △A540/min and was calculated as the tangent of the angle of the steepest dependence curve part △A540 versus time.

Experiment [5] addresses T2, complex II of the electron transport chain (Rattus norvegicus, UniProt P21913+Q641Z9+Q6PCT8+Q920L2).
T2 construct: Rat heart mitochondria were isolated by differential centrifugation; from tissue; host or cells: rat heart mitochondria
Put plainly: Respiratory chain complex II, OCR of isolated rat heart mitochondria (Seahorse). Particulars: isolated rat heart mitochondria 10 μg/well, compounds at 30 μM. It is filed as biochemical. As to the method: as §4, §5

The structures appear in SMILES notation. Where two headings read alike, the source gives them in different places.

T2 sequence (Q920L2 35-656): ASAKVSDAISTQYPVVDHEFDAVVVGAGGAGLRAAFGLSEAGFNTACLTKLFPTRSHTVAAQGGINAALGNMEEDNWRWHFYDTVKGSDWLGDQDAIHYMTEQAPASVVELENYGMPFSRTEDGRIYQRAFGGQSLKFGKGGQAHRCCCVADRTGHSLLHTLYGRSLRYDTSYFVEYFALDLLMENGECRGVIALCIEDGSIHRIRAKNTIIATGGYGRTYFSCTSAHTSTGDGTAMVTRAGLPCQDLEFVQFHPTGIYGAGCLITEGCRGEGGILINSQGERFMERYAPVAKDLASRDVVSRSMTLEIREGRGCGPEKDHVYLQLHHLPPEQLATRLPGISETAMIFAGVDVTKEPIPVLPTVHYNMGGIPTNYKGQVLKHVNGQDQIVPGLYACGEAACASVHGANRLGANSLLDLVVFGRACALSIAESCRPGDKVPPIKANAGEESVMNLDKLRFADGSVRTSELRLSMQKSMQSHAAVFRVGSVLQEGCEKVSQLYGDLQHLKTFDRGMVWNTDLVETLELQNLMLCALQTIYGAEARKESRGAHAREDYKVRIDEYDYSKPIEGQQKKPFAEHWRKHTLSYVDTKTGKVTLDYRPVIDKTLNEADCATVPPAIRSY
T2 sequence (P21913 31-282): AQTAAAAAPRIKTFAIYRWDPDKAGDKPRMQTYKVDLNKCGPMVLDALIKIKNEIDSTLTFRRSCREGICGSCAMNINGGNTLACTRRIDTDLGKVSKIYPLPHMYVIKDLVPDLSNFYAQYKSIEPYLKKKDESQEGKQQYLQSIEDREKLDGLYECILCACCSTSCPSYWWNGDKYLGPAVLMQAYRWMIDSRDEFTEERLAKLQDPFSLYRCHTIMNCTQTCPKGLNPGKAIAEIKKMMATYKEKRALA
T2 sequence (Q641Z9 30-169 limits assumed): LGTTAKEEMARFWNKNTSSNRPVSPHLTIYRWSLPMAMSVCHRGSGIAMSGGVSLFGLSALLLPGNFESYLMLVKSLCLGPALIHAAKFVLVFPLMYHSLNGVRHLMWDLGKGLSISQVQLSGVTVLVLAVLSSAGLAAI
T2 sequence (Q6PCT8 57-159): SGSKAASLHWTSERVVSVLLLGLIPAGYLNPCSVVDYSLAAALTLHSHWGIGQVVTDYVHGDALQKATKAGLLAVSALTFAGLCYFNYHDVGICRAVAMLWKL
T1 sequence (P00406 whole entry, other chains not shown): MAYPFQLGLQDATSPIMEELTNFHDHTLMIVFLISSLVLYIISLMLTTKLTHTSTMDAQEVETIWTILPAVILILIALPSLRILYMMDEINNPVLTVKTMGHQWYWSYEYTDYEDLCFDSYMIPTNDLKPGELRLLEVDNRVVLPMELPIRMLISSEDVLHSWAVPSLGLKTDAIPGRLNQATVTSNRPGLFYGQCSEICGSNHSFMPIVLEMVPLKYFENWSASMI
T1 sequence (P05505 whole entry, other chains not shown): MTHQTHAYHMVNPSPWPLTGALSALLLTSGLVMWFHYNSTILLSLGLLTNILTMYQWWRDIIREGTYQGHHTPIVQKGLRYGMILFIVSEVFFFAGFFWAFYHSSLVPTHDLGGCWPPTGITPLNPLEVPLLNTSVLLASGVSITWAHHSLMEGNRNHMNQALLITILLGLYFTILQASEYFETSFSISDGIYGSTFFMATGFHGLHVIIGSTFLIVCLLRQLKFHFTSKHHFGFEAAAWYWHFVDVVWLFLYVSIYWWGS

Turning to `COc1cccc2c1C(=O)c1c(O)c3c(c(O)c1C2=O)CC(O)(C(=O)CO)CC3OC1CC(NCC2C(=O)OC3CC4(C)CCCC5(C)OC45CC32)C(O)C(C)O1` (mixture of isomers) [Compound 6a], the 50% inhibitory concentration (IC50) in the experiment with MCF7 (breast cancer) is 2.94 ± 0.02 µM; in the experiment with A549 (lung carcinoma), 0.88 ± 0.11 µM; in experiment [1], 0.98 ± 0.23 µM; in experiment [2] it was 1.18 ± 0.01 µM; in experiment [4], 0.25 ± 0.04 µM. In experiment [3], the “Work of Respiratory Chain Complexes, % Decrease in OCR of Control, IV” value (from here on “Work … % Decrease in OCR of Control, IV”) is reported as 40.50 ± 4.05%. Further, in the experiment on rat heart mitochondria, the “Mitochondrial Swelling, % of Ca2+-Induced Swelling” value (“Mitochondrial Swelling, %” for short) is 54.22 ± 5.49%.

Take `COc1cccc2c1C(=O)c1c(O)c3c(c(O)c1C2=O)CC(O)(C(C)=O)CC3OC1CC(NCC2C(=O)OC3CC4(C)CCCC5(C)OC45CC32)C(O)C(C)O1` (mixture of isomers) [Compound 6b]: the IC50 in the experiment on MCF7 (breast cancer) amounted to 1.47 ± 0.04 µM; in the experiment with A549 (lung carcinoma), 0.56 ± 0.01 µM; in experiment [1] it was 3.68 ± 0.16 µM; in experiment [2], 0.41 ± 0.02 µM; in experiment [4] it was 0.26 ± 0.01 µM. Besides, the “Work … % Decrease in OCR of Control, IV” value in experiment [3] came out at 41.69 ± 2.13%. For the same compound, the “Work of Respiratory Chain Complexes, % Decrease in OCR of Control, II” value (from here on “Work … % Decrease in OCR of Control, II”) in experiment [5] is given as 26.74 ± 4.56%. For the same compound, the “Mitochondrial Swelling, %” value in the experiment on rat heart mitochondria is given as “— (“—” indicates activity absence for compounds (≤10%) in a particular test)”.

As to `C=C1CCC[C@]2(C)C[C@H]3OC(=O)C(=C)[C@H]3CC12` (some centres unmarked) [Compound 1, isoalantholactone, reference compound], the IC50 is 17.5 ± 0.6 µM with MCF7 (breast cancer) (Homo sapiens, MCF7, 72 h); 32 ± 3.24 µM in the experiment with A549 (lung carcinoma) (Homo sapiens, A549, 72 h); 74.03 ± 0.51 µM in experiment [1] (Homo sapiens, HEK293, 72 h); 10.4 ± 0.79 µM in experiment [2] (Homo sapiens); 11.3 ± 0.27 µM in experiment [4] (Homo sapiens, HCT-116, 72 h).

Turning to `C=C1CCCC2(C)CC3OC(=O)C(CNC4CC(OC5CC(O)(C(=O)CO)Cc6c(O)c7c(c(O)c65)C(=O)c5c(OC)cccc5C7=O)OC(C)C4O)C3CC12` (centres unmarked) [Compound 1a], the IC50 is 11.1 ± 0.17 µM with MCF7 (breast cancer); 2.21 ± 0.06 µM with A549 (lung carcinoma); 19.8 ± 0.42 µM in experiment [1]; 2.41 ± 0.03 µM in experiment [2]; 2.81 ± 0.05 µM in experiment [4]. Also, the “Work … % Decrease in OCR of Control, IV” value in experiment [3] is 24.52 ± 7.61%. The “Work … % Decrease in OCR of Control, II” value in experiment [5] was found to be 27.61 ± 5.71%. The “Mitochondrial Swelling, %” value in the experiment with rat heart mitochondria is “— (“—” indicates activity absence for compounds (≤10%) in a particular test)”.

As for `C=C1CCCC2(C)CC3OC(=O)C(CNC4CC(OC5CC(O)(C(C)=O)Cc6c(O)c7c(c(O)c65)C(=O)c5c(OC)cccc5C7=O)OC(C)C4O)C3CC12` (centres unmarked) [Compound 1b], the IC50 in the experiment on MCF7 (breast cancer) stood at 3.95 ± 0.03 µM; with A549 (lung carcinoma), 0.93 ± 0.06 µM; in experiment [1], 3.43 ± 0.04 µM; in experiment [2], 0.96 ± 0.02 µM; in experiment [4], 0.28 µM. The “Work … % Decrease in OCR of Control, IV” value in experiment [3] is listed as “— (“—” indicates activity absence for compounds (≤10%) in a particular test)”. The “Work … % Decrease in OCR of Control, II” value in experiment [5] is listed as “— (“—” indicates activity absence for compounds (≤10%) in a particular test)”. For the same compound, the “Mitochondrial Swelling, %” value in the experiment with rat heart mitochondria was “— (“—” indicates activity absence for compounds (≤10%) in a particular test)”.

As for `C=C1C(=O)O[C@@H]2C[C@@]3(C)CCC[C@H](C)C3=C[C@H]12` [Compound 2, alantolactone, reference compound], the IC50 in the experiment on MCF7 (breast cancer) (Homo sapiens, MCF7, 72 h) was 13.2 ± 0.93 µM; in the experiment with A549 (lung carcinoma) (Homo sapiens, A549, 72 h) it was 36.7 ± 1.43 µM; in experiment [1] (Homo sapiens, HEK293, 72 h), 36.47 ± 0.07 µM; in experiment [2] (Homo sapiens), 5.48 ± 0.2 µM; in experiment [4] (Homo sapiens, HCT-116, 72 h), 10.57 ± 0.04 µM.
